Data: patent US6403617B1, “Diaminopyridine-containing thiourea inhibitors of herpes viruses” (American Home Products Corp., priority 1998, dated 2002)
≈ marks a conversion by molar mass, not a printed value.

Key:
HCMV wild-type = experiment: HCMV yield assay; format: cell-based, Human Cytomegalovirus; details: human foreskin fibroblasts, reduction of virus yield by 50%; for IC50: Human betaherpesvirus 5, Fibroblast, read-out: IC50 (ug/ml) HCMV
Procedure: Yield assay. Monolayer cultures of human foreskin fibroblasts are infected with HCMV wild-type, typically at a multiplicity of infection equal to 0.2, in the presence of inhibitor compound (varying concentrations). At three days post-infection, total virus produced in these cultures (i.e. virus yield) is assessed by harvesting and titering the virus in 12-well plates of cultured human foreskin fibroblasts (done in the absence of inhibitor). Plaques are quantified at 2 weeks post-infection. An inhibitor of HCMV is identified by the reduction in titer of virus yield in the presence, compared to the titer in the absence of compound. In this assay, the relative anti-HCMV activity of an inhibitor is typically determined by calculating the IC50 or IC90 value, that is, the amount of compound required to reduce the virus yield by 50% or 90%, respectively. Table I describes IC50 data for compounds tested against HCMV.

VZV strain Ellen = experiment: VZV Antiviral (ELISA) Assay; format: cell-based, varicella-zoster virus; details: human foreskin fibroblast cells, three days; for IC50: Human alphaherpesvirus 3, 72 h, read-out: IC50 (ug/ml) VZV
Procedure: For the generation of stock VZV to be used in the assay, VZV strain Ellen (ATCC #VR-1367) is used to infect human foreskin fibroblast (HFF) cells at low multiplicity (less than 0.1) and incubated overnight at 37° C. in 5% CO2. After the overnight incubation, the mixture of uninfected and VZV-infected HFF infected cells are then harvested and added to each well of 96-well plates (3.5×10^4 cells in 100 μl DMEM supplemented with 2% FBS) which contain test compound or the reference standard drug control (in 100 μl DMEM supplemented with 2% FBS per well). These cells are incubated for three days at 37° C. in 5% CO2, then fixed for ELISA assay. The primary antibody is murine anti-VZV glycoprotein II monoclonal antibody (Applied Biosystems, Inc. #13-145-100) and the secondary antibody is goat anti-mouse IgG linked to β-galactosidase. Thus the extent of viral replication is determined by assessing β-galactosidase activity by quantifying the generation of the 4-methyl umbelliferone fluorescent cleavage product after addition of the methyl umbelliferyl-β-D-galactoside (Sigma #M1633) substrate on a microfluorimeter (365 nm for excitation and 450 nm for emission). Antiviral activity (IC50) of the test compound is determined by comparing the flourescence obtained in absence of compound to that obtained in the presence of compound.

| Molecule | IC50 (HCMV wild-type) | IC50 (VZV strain Ellen) | IC50 (ug/ml) HCMV (HCMV wild-type) | IC50 (ug/ml) VZV (VZV strain Ellen) |
| --- | --- | --- | --- | --- |
| C[C@H](NC(=O)Nc1ccc(NC(=O)c2cscn2)nc1)c1cc(C(F)(F)F)cc(C(F)(F)F)c1 [Example 821, N-(5-{[({(1S)-1-[3,5-bis(trifluoromethyl)phenyl]ethyl}amino)carbonyl]amino}-2-pyridinyl)-1,3-thiazole-4-carboxamide] | 0.014 µg/mL (≈ 0.0278 µM) | > 7.5 µg/mL | – | – |
| CC(NC(=S)Nc1ccc(NC(=O)c2cscn2)nc1)c1ccc(Cl)cc1F (stereo not shown) [Example 827, N-{5-[({[1-(4-chloro-2-fluorophenyl)ethyl]amino}carbothioyl)amino]-2-pyridinyl}-1,3-thiazole-4-carboxamide] | 0.026 µg/mL (≈ 0.0596 µM) | – | – | – |
| CC(NC(=S)Nc1ccc(NC(=O)c2cscn2)nc1)c1cc(C(F)(F)F)ccc1F (stereo not shown) [Example 818, N-(5-{[({1-[2-fluoro-5-(trifluoromethyl)phenyl]ethyl}amino)carbothioyl]amino}-2-pyridinyl)-1,3-thiazole-4-carboxamide] | 0.0022 µg/mL (≈ 0.00469 µM) | > 7.5 µg/mL | – | – |
| CC(NC(=S)Nc1ccc(NC(=O)c2cscn2)nc1)c1cccc(Br)c1 (stereo not shown) [Example 822, N-{5-[({[1-(3-bromophenyl)ethyl]amino}carbothioyl)amino]-2-pyridinyl}-1,3-thiazole-4-carboxamide] | 0.05 µg/mL (≈ 0.108 µM) | > 7.5 µg/mL | – | – |
| N-{6-[({[1-(4-fluorophenyl)ethyl]amino}carbothioyl)amino]-3-pyridinyl}-1,2,3-thiadiazole-4-carboxamide [Example 828] | – | – | 0.45 µg/mL | >7.5 µg/mL |
| CC(NC(=S)Nc1ccc(NC(=O)c2cscn2)nc1)c1cccc(C(F)(F)F)c1 (stereo not shown) [Example 824, N-(5-{[({1-[3-(trifluoromethyl)phenyl]ethyl}amino)carbothioyl]amino}-2-pyridinyl)-1,3-thiazole-4-carboxamide] | 0.004 µg/mL (≈ 0.00886 µM) | 3.2 µg/mL (≈ 7.09 µM) | – | – |
| O=C(Nc1ccc(NC(=S)NCc2cc(C(F)(F)F)cc(C(F)(F)F)c2)cn1)c1csnn1 [Example 815, N-{5-[({[3,5-bis(trifluoromethyl)benzyl]amino}carbothioyl)amino]-2-pyridinyl}-1,2,3-thiadiazole-4-carboxamide] | 0.0024 µg/mL (≈ 0.00474 µM) | > 7.5 µg/mL | – | – |
| C[C@H](NC(=S)Nc1ccc(NC(=O)c2csnn2)nc1)c1cc(C(F)(F)F)cc(C(F)(F)F)c1 [Example 816, N-(5-{[({(1S)-1-[3,5-bis(trifluoromethyl)phenyl]ethyl}amino)carbothioyl]amino}-2-pyridinyl)-1,2,3-thiadiazole-4-carboxamide] | 0.0015 µg/mL (≈ 0.00288 µM) | > 7.5 µg/mL | – | – |
| C[C@H](NC(=S)Nc1ccc(NC(=O)c2cscn2)nc1)c1cc(C(F)(F)F)cc(C(F)(F)F)c1 [Example 817, N-(5-{[({(1S)-1-[3,5-bis(trifluoromethyl)phenyl]ethyl}amino)carbothioyl]amino}-2-pyridinyl)-1,3-thiazole-4-carboxamide] | 0.001 µg/mL (≈ 0.00192 µM) | > 7.5 µg/mL | – | – |
| CC(NC(=S)Nc1ccc(NC(=O)c2cscn2)nc1)c1ccc(Cl)c(F)c1 (stereo not shown) [Example 826, N-{5-[({[1-(4-chloro-3-fluorophenyl)ethyl]amino}carbothioyl)amino]-2-pyridinyl}-1,3-thiazole-4-carboxamide] | 0.02 µg/mL (≈ 0.0459 µM) | 0.86 µg/mL (≈ 1.97 µM) | – | – |
| CC(NC(=S)Nc1ccc(NC(=O)c2cscn2)nc1)c1ccc(C(F)(F)F)cc1F (stereo not shown) [Example 819, N-(5-{[({1-[2-fluoro-4-(trifluoromethyl)phenyl]ethyl}amino)carbothioyl]amino}-2-pyridinyl)-1,3-thiazole-4-carboxamide] | 0.0022 µg/mL (≈ 0.00469 µM) | > 7.5 µg/mL | – | – |
| CC(NC(=S)Nc1ccc(NC(=O)c2cscn2)nc1)c1ccccc1Br (stereo not shown) [Example 823, N-{5-[({[1-(2-bromophenyl)ethyl]amino}carbothioyl)amino]-2-pyridinyl}-1,3-thiazole-4-carboxamide] | 0.05 µg/mL (≈ 0.108 µM) | > 7.5 µg/mL | – | – |
| CC(NC(=S)Nc1ccc(NC(=O)c2cscn2)nc1)c1ccc(Cl)c(C(F)(F)F)c1 (stereo not shown) [Example 825, N-(5-{[({1-[4-chloro-3-(trifluoromethyl)phenyl]ethyl}amino)carbothioyl]amino}-2-pyridinyl)-1,3-thiazole-4-carboxamide] | 0.003 µg/mL (≈ 0.00617 µM) | 6.12 µg/mL (≈ 12.6 µM) | – | – |
